In series [1] the test system is IL-23 mediated IFN-γ secretion (human whole blood). Kind of series: Functional inhibition of IL-23 mediated IFN-γ secretion in human whole blood. The conditions noted are these: Table 3-5, hIL-23 EC80 with hIL-2 and hIL-18. The series is classed as cell-based. From the text: An in vitro human whole blood assay was used to assess the ability of IL23-R inhibitor compounds to inhibit IL-23-mediated IFN-γ secretion. The assay quantifies the functional antagonism of the IL23R inhibitors may be used to rank inhibitor potencies based on concentration response curves (CRCs) generated in the presence of fixed IL-23, IL-2 and IL-18 concentrations. […] and maximal inhibitory response may be calculated from the curves.
Human blood was obtained from voluntary donors at Blodbanken Hvidovre Hospital, Denmark on the day of the experiment by collection in BD Sodium-Heparin Vacutainer tubes [Cat #367876, Avantor].
The buffer used consisted of RPMI-1640 [Cat #61870-010; Thermo Fisher Scientific] supplemented with 1% V/V Penicillin-Streptomycin (Pen-Strep) Solution [Cat #15140; Thermo Fisher Scientific] and 1 mM Sodium Pyruvate [Cat #11360-039, Thermo Fisher Scientific] and 25 mM HEPES buffer [Cat #15630-056, Thermo Fisher Scientific] and 0.05% V/V Casein [Cat #C4765, Sigma-Aldrich] (hereafter referred to as assay buffer). […] A stimulatory solution of hIL-23 [Cat #11349-IL; R&D systems] corresponding to 4× the EC80 of hIL-23 (1.6 ng/ml) together with 4× hIL-2 [Cat #BT-002; R&D systems] (40 ng/ml) and 4× hIL-18 [Cat #9124-IL; R&D systems] (80 ng/ml) were also prepared in Assay buffer. To initiate the assay, 25 μL of the prepared 4× diluted test compound was added to the wells of a 96 well plate [Cat #167425; Thermo Scientific] followed by addition of 50 μL human whole blood to each well. Following the preincubation of the blood and inhibitor for 15 min in a cell incubator (37° C., 5% CO2), 25 μL of the prepared 4× stimulatory solution was added to each well and incubated for 16-24 hours in a humidity chamber in a cell incubator (37° C., 5% CO2).
To terminate the assay, 100 μL PBS pH 7.4 [Cat #10010-015; Thermo Fisher Scientific] was added to each well and the plate was spun at 350×G for ten minutes to pellet the blood. The supernatant was removed and added to a 96 well V-bottom Polypropylene plate [Corning 3363] using an 8-channel manual pipette.
Samples were diluted an additional 30× in Diluent 57 buffer from the MSD U-PLEX human IFN-γ assay [Cat #K151TTK-2; Mesoscale Discovery].
The IFN-γ level in the supernatant from the individual wells was determined using the MSD U-PLEX human IFN-γ assay kit [Cat #K151TTK-2; Mesoscale Discovery] and read on a Meso QuickPlex SQ 120 plate reader (Mesoscale Discovery).
For data analysis, raw data counts from the Meso QuickPlex SQ 120 plate reader were converted to concentrations of IFN-γ by using the standard curved supplied with the kit. Compound potency (IC50) and maximal inhibition (% inhibition) was estimated by computer-aided curve fitting using a 4-parameter logistic (4PL) non-linear mode. […] Maximal inhibition was expressed as a percentage where 0% is the activity level induced by the reference agonist alone ([…] together with IL-2 and IL-18 as indicated above), and 100% is the baseline activity level of the unstimulated receptor in the absence of the reference agonist.
Typically compounds with a low IC50 are desired. Typically compounds capable of completely inhibiting the IL23-induced response are desired.

A short description of series [2]: Peptide stability in simulated intestinal fluid (SIF). It counts as in vitro ADME. The conditions noted are these: simulated intestinal fluid; for remaining at 1 h, 10 µM: pig, SIF, pH 6.8, pancreatin, 37° C. In outline:
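Peptide at 10 μM final in USP-type SIF (10 g/L porcine pancreatin, phosphate buffer pH 6.8), shaken at 37 °C. Samples at 0, 1 and 4 h quenched in acetonitrile/0.1% formic acid and analysed by LC-HRMS. Percent remaining calculated from absolute peak areas relative to time zero.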

The nature of series [3]: Peptide stability in simulated gastric fluid (SGF). It counts as in vitro ADME. The conditions noted are these: pig, pH 1.2, pepsin, 37° C. In outline: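 Peptide (10 μM final) incubated at 37 °C in USP SGF, pH 1.2 with porcine pepsin 3.2 g/L; aliquots at 0, 1 and 4 h quenched in acidified acetonitrile.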

One may read the IC50 as the midpoint of a concentration-inhibition curve. A higher IC50 goes with weaker potency in that assay.

*1 amine or outer side, *2 acyl side, *3 side chain or, on linkers, in order; H or OH if unused. Where a SMILES comes first, the peptide text is derived from it. Bridges are numbered along the chain shown (N, C = ends). [ ]: non-standard residue; d: D form. 2Nal = N[C@@H](Cc1ccc2ccccc2c1)C(=O)O; AEF = NCCOc1ccc(C[C@H](N)C(=O)O)cc1; X1 = O=C(Cc1ccc(CN[*:1])cc1)[*:2]; 3Pal = N[C@@H](Cc1cccnc1)C(=O)O; αMeL = CC(C)C[C@](C)(N)C(=O)O; Dab = NCC[C@H](N)C(=O)O; Sar = CNCC(=O)O

Take `CNC(=O)[C@H](Cc1cccnc1)NC(=O)[C@H](CCN)NC(=O)[C@@H]1CCC(=O)NCc2ccc(cc2)CC(=O)N[C@@H](CO)C(=O)N[C@H]2CCC(=O)NCC[C@H](NC(=O)[C@H](CCC(N)=O)NC(=O)[C@H](Cc3c[nH]c4ccccc34)NC2=O)C(=O)N[C@@H](Cc2ccc(OCCN)cc2)C(=O)N[C@@H](Cc2ccc3ccccc3c2)C(=O)N[C@@](C)(CC(C)C)C(=O)N1` [Compound 8, [4-Aminomethyl-phenylacetyl](1c)*SE(2c)WQ[Dab](2c)[Y(2-aminoethoxy)][2-Nal][2-Me-Leu]E(1c)[Dab][3-(3-Pyridyl)-Ala]-[NHMe]]: in series [1], the IC50 stood at 0.33 nM and the “maximal inhibition (%)” value came out at 96%. For the same molecule, in series [2], the fraction remaining at 1 h, 10 µM was 96% and the “SIF stability (in words)” value is on record as “SIF stable”. For the same molecule, in series [3], the amount remaining at 1 h, 10 µM is 91% and the amount remaining at 4 h, 10 µM was 87%.
For the molecule `CC(C)C[C@]1(C)NC(=O)[C@H](Cc2ccc3ccccc3c2)NC(=O)[C@H](Cc2ccc(OCCN)cc2)NC(=O)[C@@H]2CCNC(=O)CC[C@H](NC(=O)[C@H](CO)NC(=O)Cc3ccc(cc3)CNC(=O)CC[C@@H](C(=O)N[C@@H](CCN)C(=O)N[C@@H](Cc3cccnc3)C(=O)N(C)CC(N)=O)NC1=O)C(=O)N[C@@H](Cc1c[nH]c3ccccc13)C(=O)N[C@@H](CCC(N)=O)C(=O)N2` [Compound 9, [4-Aminomethyl-phenylacetyl](1c)*SE(2c)WQ[Dab](2c)[Y(2-aminoethoxy)][2-Nal][2-Me-Leu]E(1c)[Dab][3-(3-Pyridyl)-Ala][Sar]-[NH2]] ([X1]SEWQ[Dab][AEF][2Nal][αMeL]E[Dab][3Pal][Sar]-NH2; lactam 3-6, N-10), in series [1], the concentration for half-maximal inhibition (IC50) was found to be 0.21 nM and the “maximal inhibition (%)” value is 97%. In series [2], the share remaining at 1 h, 10 µM is 102% and the “SIF stability (in words)” value is “SIF stable”. The fraction remaining at 4 h, 10 µM in series [3] was 95%.
Regarding `CNC(=O)[C@H](Cc1cccnc1)NC(=O)[C@H](CCN)NC(=O)[C@@H]1CCC(=O)NCc2ccc(cc2)CC(=O)N[C@@H](C)C(=O)N[C@H]2CCC(=O)NCC[C@H](NC(=O)[C@H](CCC(N)=O)NC(=O)[C@H](Cc3c[nH]c4ccccc34)NC2=O)C(=O)N[C@@H](Cc2ccc(OCCN)cc2)C(=O)N[C@@H](Cc2ccc3ccccc3c2)C(=O)N[C@@](C)(CC(C)C)C(=O)N1` [Compound 20, [4-Aminomethyl-phenylacetyl](1c)*AE(2c)WQ[Dab](2c)[Y(2-aminoethoxy)][2-Nal][2-Me-Leu]E(1c)[Dab][3-(3-Pyridyl)-Ala]-[NHMe]], in series [1], the concentration for half-maximal inhibition (IC50) came out at 0.64 nM and the “maximal inhibition (%)” value was determined as 97%. In addition, in series [3], the share remaining at 1 h, 10 µM is 107% and the amount remaining at 4 h, 10 µM is 103%.
`CNC(=O)CC[C@@H]1NC(=O)[C@H](Cc2c[nH]c3ccccc23)NC(=O)[C@@H]2CCC(=O)NCC[C@H](NC1=O)C(=O)N[C@@H](Cc1ccc(OCCN)cc1)C(=O)N[C@@H](Cc1ccc3ccccc3c1)C(=O)N[C@@](C)(CC(C)C)C(=O)N[C@H](C(=O)N[C@@H](CCN)C(=O)N[C@@H](Cc1cccnc1)C(=O)NC)CCC(=O)NCc1ccc(cc1)CC(=O)N[C@@H](CO)C(=O)N2` [Compound 29, [4-Aminomethyl-phenylacetyl](1c)*SE(2c)W[Q(Me)][Dab](2c)[Y(2-aminoethoxy)][2-Nal][2-Me-Leu]E(1c)[Dab][3-(3-Pyridyl)-Ala]-[NHMe]] ([X1]SEWE(NHMe)[Dab][AEF][2Nal][αMeL]E[Dab][3Pal]-NHMe; lactam 3-6, N-10): in series [1], the IC50 was 0.54 nM and the “maximal inhibition (%)” value was found to be 96%. Further, the share remaining at 1 h, 10 µM in series [2] was 91%. In series [3], the share remaining at 1 h, 10 µM is 94% and the amount remaining at 4 h, 10 µM is 90%.
Regarding `CNC(=O)[C@H](Cc1cccnc1)NC(=O)[C@H](CCN)NC(=O)[C@@H]1CCC(=O)NCc2ccc(cc2)CC(=O)N[C@@H](C)C(=O)N[C@H]2CCC(=O)NCC[C@H](NC(=O)[C@H](CCC(N)=O)NC(=O)[C@H](Cc3c[nH]c4ccccc34)NC2=O)C(=O)N[C@@H](Cc2c[nH]c3ncccc23)C(=O)N[C@@H](Cc2ccc3ccccc3c2)C(=O)NC(C)(C)C(=O)N1` [Compound 43, [4-Aminomethyl-phenylacetyl](1c)*AE(2c)WQ[Dab](2c)[7-AzaTrp][2-Nal][Aib]E(1c)[Dab][3-(3-Pyridyl)-Ala]-[NHMe]], in series [1], it took 3.9 nM to reach half-maximal inhibition (IC50) and the “maximal inhibition (%)” value was 102%. Moreover, the fraction remaining at 1 h, 10 µM in series [2] is 96%. In series [3], the fraction remaining at 1 h, 10 µM was 105%.

These data come from patent US20260327264A1, “PEPTIDE INHIBITORS OF INTERLEUKIN-23 RECEPTOR” (Zealand Pharma A/S, priority 2023, published 2026).
